# Tests used:
# [1] = Oral bioavailability in Beagle dog; type: ADME, organism-based, Canis lupus familiaris; details: in vivo
# Cytochrome P450 3A4 = Cytochrome P450 3A4 (Homo sapiens, UniProt P08684); experiment: Metabolism-dependent inhibition of CYP3A4 (unknown origin); type: ADME
# [2] = Clearance in Beagle dog at 0.5 mg/kg, iv administered as 1 hr infusion on day 1 and day 7 to achieve a target dose of 1 mg/kg by LC-MS/MS analysis relative to liver blood flow; type: ADME, organism-based, Canis lupus familiaris; details: in vivo, 168 h, dose 0.5-1 mg/kg, time 7 day
# [3] = Clearance in Wistar Han rat at 1 mg/kg, iv administered as 1 hr infusion or 3 mg/kg, po administered via gavage by LC-MS/MS analysis relative to liver blood flow; type: ADME, organism-based; details: in vivo
# Blood = experiment: Inhibition of LPS-induced MCP1 production in human whole blood preincubated for 30 mins followed by LPS addition measured after 24 hrs by immunoassay; type: functional, tissue-based
# [4] = target: Bromodomain testis-specific protein (Homo sapiens, UniProt Q58F21, Y66A); experiment: Displacement of Alexa Fluor 647 labelled ligand from 6His-Thr tagged BRDT BD2/BD1 Y66A mutant (1 to 397 residues) (unknown origin) measured after 30 mins by TR-FRET assay
# [5] = target: Bromodomain-containing protein 3 (Homo sapiens, UniProt Q15059, Y348A); experiment: Displacement of Alexa Fluor 647 labelled ligand from 6His-Thr tagged BRD3 BD1/BD2 Y348A mutant (1 to 435 residues) (unknown origin) measured after 30 mins by TR-FRET assay
# Chain of Bromodomain-containing protein 3 (Homo sapiens, UniProt Q15059, Y348A) (Q15059 2-726 Y348A limits assumed): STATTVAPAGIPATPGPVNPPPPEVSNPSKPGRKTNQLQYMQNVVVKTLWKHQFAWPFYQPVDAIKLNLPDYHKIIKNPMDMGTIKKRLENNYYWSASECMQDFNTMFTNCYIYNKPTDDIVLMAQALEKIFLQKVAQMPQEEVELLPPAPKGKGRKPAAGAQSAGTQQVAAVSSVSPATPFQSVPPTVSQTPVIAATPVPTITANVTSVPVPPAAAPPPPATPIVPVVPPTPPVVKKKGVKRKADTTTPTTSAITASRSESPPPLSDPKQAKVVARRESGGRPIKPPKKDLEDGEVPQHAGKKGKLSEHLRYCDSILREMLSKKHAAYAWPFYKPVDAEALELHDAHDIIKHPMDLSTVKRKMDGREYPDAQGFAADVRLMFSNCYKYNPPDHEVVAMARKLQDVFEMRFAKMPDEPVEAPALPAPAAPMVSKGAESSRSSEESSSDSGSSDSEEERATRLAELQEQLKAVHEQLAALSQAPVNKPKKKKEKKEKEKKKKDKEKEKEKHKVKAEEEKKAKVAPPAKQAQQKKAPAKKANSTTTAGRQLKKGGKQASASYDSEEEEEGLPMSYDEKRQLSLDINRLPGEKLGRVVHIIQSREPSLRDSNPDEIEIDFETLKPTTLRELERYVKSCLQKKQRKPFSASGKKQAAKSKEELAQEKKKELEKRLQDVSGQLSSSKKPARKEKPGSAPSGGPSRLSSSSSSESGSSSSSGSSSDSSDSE
# [6] = target: Bromodomain-containing protein 3 (Homo sapiens, UniProt Q15059, Y73A); experiment: Displacement of Alexa Fluor 647 labelled ligand from 6His-Thr tagged BRD3 BD2/BD1 Y73A mutant (1 to 435 residues) (unknown origin) measured after 30 mins by TR-FRET assay
# Chain of Bromodomain-containing protein 3 (Homo sapiens, UniProt Q15059, Y73A) (Q15059 2-726 Y73A limits assumed): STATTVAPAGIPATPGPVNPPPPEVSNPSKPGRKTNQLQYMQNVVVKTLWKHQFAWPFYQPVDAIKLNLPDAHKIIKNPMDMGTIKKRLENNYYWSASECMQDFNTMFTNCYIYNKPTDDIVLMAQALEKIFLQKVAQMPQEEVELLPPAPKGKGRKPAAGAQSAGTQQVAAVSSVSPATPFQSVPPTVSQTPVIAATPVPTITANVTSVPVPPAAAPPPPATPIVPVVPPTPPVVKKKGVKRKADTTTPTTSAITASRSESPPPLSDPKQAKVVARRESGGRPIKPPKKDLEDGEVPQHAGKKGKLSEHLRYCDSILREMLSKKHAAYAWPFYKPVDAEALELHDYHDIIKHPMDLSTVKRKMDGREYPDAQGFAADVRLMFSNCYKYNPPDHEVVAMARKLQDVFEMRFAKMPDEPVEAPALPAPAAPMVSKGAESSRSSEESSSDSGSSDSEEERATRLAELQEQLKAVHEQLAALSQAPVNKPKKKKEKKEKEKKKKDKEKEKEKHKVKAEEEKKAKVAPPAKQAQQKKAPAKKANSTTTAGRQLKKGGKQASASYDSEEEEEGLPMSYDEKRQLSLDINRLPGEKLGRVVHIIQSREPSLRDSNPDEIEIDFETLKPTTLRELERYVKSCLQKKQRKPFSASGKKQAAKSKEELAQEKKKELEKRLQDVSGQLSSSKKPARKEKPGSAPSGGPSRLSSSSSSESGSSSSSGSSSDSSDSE
# [7] = target: Bromodomain-containing protein 2 (Homo sapiens, UniProt P25440, Y113A); experiment: Displacement of Alexa Fluor 647 labelled ligand from 6His-Thr tagged BRD2 BD2/BD1 Y113A mutant (1 to 473 residues) (unknown origin) measured after 30 mins by TR-FRET assay
# Chain of Bromodomain-containing protein 2 (Homo sapiens, UniProt P25440, Y113A) (P25440 whole entry Y113A, the tested form may be a part): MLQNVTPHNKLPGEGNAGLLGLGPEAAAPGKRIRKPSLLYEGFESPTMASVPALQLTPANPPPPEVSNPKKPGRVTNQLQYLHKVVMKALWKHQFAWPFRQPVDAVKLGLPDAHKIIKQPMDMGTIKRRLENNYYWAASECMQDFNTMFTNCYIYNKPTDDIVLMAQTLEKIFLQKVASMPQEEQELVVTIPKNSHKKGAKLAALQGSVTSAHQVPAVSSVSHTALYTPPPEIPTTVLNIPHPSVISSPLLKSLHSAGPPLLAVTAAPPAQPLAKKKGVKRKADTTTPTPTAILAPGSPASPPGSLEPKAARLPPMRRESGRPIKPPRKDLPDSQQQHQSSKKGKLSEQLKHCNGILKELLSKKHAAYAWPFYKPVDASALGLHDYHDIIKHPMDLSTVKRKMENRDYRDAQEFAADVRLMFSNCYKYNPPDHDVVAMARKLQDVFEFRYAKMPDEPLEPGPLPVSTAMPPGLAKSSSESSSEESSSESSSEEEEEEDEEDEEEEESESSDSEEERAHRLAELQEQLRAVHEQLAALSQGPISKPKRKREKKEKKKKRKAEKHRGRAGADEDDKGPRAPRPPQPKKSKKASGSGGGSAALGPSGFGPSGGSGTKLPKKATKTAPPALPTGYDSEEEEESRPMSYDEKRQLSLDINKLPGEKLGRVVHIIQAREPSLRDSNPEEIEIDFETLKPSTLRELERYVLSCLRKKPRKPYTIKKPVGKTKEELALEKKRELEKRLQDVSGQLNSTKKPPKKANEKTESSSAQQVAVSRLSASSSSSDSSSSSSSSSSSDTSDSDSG
# Albumin = Albumin (Homo sapiens, UniProt P02768); experiment: Binding affinity to HSA relative to control; type: ADME; details: isolated protein
# Chain of Albumin (P02768 whole entry): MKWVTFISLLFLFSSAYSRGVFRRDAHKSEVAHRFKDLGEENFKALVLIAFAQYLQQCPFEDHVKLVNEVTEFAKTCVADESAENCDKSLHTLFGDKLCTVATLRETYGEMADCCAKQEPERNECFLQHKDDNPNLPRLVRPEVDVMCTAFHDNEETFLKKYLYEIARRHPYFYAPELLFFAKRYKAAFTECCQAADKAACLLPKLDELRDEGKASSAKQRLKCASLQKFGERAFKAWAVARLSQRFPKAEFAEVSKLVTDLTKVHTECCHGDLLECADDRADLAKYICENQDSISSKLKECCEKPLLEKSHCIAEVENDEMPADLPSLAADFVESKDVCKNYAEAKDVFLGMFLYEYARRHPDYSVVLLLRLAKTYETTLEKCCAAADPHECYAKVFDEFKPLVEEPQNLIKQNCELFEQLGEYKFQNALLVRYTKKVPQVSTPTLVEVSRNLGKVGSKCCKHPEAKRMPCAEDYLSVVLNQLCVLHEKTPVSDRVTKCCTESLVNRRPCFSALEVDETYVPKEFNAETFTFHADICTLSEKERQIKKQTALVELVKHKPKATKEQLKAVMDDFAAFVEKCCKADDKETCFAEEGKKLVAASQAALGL
# [8] = Solubility of the compound in pH 6.5 FaSSIF at 125 ug/ml measured after 16 hrs by HPLC analysis; type: physicochemical; details: dose 125 µg/ml
# [9] = Fraction unbound in human blood measured after 4 hrs by LC-MS/MS analysis; type: ADME, tissue-based
# [10] = Fraction unbound in Beagle dog blood measured after 4 hrs by LC-MS/MS analysis; type: ADME, tissue-based, Canis lupus familiaris
# [11] = Fraction unbound in Wistar Han rat blood measured after 4 hrs by LC-MS/MS analysis; type: ADME, tissue-based
# [12] = Half life in Beagle dog at 0.5 mg/kg, iv administered as 1 hr infusion on day 1 and day 7 to achieve a target dose of 1 mg/kg by LC-MS/MS analysis; type: ADME, organism-based, Canis lupus familiaris; details: in vivo, dose 0.5-1 mg/kg, time 7 day
# [13] = Oral bioavailability in Wistar Han rat at 3 mg/kg by LC-MS/MS analysis; type: ADME, organism-based; details: in vivo
# [14] = Volume of distribution at steady state in Beagle dog at 0.5 mg/kg, iv administered as 1 hr infusion on day 1 and day 7 to achieve a target dose of 1 mg/kg by LC-MS/MS analysis; type: ADME, organism-based, Canis lupus familiaris; details: in vivo, dose 0.5-1 mg/kg, time 7 day, read-out: Vdss
# [15] = Half life in Wistar Han rat at 1 mg/kg, iv administered as 1 hr infusion or 3 mg/kg, po administered via gavage by LC-MS/MS analysis; type: ADME, organism-based; details: in vivo
# [16] = Volume of distribution at steady state in Wistar Han rat at 1 mg/kg, iv administered as 1 hr infusion or 3 mg/kg, po administered via gavage by LC-MS/MS analysis; type: ADME, organism-based; details: in vivo, read-out: Vdss
# [17] = Clearance in Beagle dog at 0.5 mg/kg, iv administered as 1 hr infusion on day 1 and day 7 to achieve a target dose of 1 mg/kg by LC-MS/MS analysis; type: ADME, organism-based, Canis lupus familiaris; details: in vivo, dose 0.5-1 mg/kg, time 7 day
# [18] = Clearance in Wistar Han rat at 1 mg/kg, iv administered as 1 hr infusion or 3 mg/kg, po administered via gavage by LC-MS/MS analysis; type: ADME, organism-based; details: in vivo
# [19] = Intrinsic clearance in human hepatocytes assessed per g tissue at 0.5 uM measured up to 60 mins by LC-MS/MS analysis; type: ADME, cell-based, Hepatocyte; details: 1 h, time <=45 min
# [20] = Intrinsic clearance in Beagle dog hepatocytes assessed per g tissue at 0.5 uM measured up to 120 mins by LC-MS/MS analysis; type: ADME, cell-based, Canis lupus familiaris, Hepatocyte; details: 2 h
# [21] = Intrinsic clearance in Wistar Han rat hepatocytes assessed per g tissue at 0.5 uM measured up to 60 mins by LC-MS/MS analysis; type: ADME, cell-based, Hepatocyte; details: 1 h, time <=45 min
# [22] = target: Bromodomain-containing protein 2 (Homo sapiens, UniProt P25440, Y386A)
# Chain of Bromodomain-containing protein 2 (Homo sapiens, UniProt P25440, Y386A) (P25440 whole entry Y386A): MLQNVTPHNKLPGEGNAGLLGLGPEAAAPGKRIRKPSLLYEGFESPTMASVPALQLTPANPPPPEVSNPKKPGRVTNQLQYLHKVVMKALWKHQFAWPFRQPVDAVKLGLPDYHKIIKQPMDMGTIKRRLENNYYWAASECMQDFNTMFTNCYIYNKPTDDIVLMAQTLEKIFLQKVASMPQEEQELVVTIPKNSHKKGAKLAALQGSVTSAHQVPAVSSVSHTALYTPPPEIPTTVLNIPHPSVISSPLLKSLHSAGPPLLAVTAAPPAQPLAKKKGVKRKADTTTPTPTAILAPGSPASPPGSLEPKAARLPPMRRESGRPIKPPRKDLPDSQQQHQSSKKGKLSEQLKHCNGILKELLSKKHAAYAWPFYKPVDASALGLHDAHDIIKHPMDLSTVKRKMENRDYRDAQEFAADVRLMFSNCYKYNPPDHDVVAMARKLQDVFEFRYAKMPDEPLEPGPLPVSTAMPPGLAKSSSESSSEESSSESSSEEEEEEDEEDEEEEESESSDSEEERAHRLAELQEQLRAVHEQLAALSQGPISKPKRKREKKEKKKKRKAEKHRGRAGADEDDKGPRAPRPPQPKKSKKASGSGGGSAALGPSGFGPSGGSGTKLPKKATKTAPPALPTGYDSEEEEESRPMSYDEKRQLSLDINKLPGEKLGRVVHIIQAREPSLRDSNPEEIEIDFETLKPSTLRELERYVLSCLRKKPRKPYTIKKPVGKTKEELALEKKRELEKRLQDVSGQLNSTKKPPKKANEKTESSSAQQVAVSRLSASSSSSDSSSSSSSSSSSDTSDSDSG
# [23] = buffer, pH 7.4
# physchem = details: phosphate buffered saline, pH 7.4
# in vitro = details: PAMPA, pH 7.4
# Chain of Cytochrome P450 3A4 (P08684 whole entry, the tested form may be a part): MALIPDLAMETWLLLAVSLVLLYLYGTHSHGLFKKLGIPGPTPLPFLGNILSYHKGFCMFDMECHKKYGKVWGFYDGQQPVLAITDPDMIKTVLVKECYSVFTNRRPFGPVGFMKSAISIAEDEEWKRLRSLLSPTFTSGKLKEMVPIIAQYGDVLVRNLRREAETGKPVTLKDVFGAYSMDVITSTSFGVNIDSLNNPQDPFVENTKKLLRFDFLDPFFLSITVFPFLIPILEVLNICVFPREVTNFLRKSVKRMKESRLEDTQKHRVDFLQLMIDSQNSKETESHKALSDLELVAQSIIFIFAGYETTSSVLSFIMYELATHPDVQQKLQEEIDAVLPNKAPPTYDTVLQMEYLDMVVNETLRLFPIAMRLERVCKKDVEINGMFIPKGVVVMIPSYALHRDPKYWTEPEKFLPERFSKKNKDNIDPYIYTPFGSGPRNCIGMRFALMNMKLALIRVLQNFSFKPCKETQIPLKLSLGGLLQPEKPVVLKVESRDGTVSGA
smiles,measurement,setting,value
CC(=O)Nc1c(F)cc(C(=O)N[C@H]2CC[C@H](O)CC2)cc1O[C@@H](C)c1ccccc1 [GSK046],bioavailability,[1],66%
same,IC50,Cytochrome P450 3A4,> 39800 nM
same,CL,[2],36%
same,CL,[3],46%
same,IC50,Blood,31.6 nM
same,IC50,[4],200 nM
same,IC50,[5],39800 nM
same,IC50,[6],100 nM
same,IC50,[7],251 nM
same,Activity,Albumin,47%
same,solubility at 16 h,[8],996 µg/mL
same,fraction unbound at 4 h,[9],0.32
same,fraction unbound at 4 h,[10],0.33
same,fraction unbound at 4 h,[11],0.44
same,half-life,[12],42 min
same,bioavailability,[13],31%
same,Vd,[14],0.91 L/kg
same,half-life,[15],30 min
same,Vd,[16],0.91 L/kg
same,clearance,[17],20 mL/min/kg
same,clearance,[18],36 mL/min/kg
same,CLH,[19],< 0.45 mL/min
same,CLH,[20],< 1.26 mL/min
same,CLH,[21],< 0.8 mL/min
same,IC50,[22],10000 nM
same,CHI,[23],2.8
same,solubility kinetic,physchem,91 µg/mL
same,Papp,in vitro,1.6 ×10⁻⁶ cm/s

# Source: ChEMBL document CHEMBL4665705 (J Med Chem, 2020)
